This note sets out measurements from patent US9416103B2, “Use of the aminoalkylindole JWH-073-M4 and related compounds as neutral CB1 receptor antagonists for the treatment of alcoholism, drug abuse, obesity, and obesity-related diseases” (The Board of Trustees of the University of Arkansas, priority 2012, dated 2016).

“And” between values parts separate entries of the source, which are not always exact repeats. Equal entries are not always repeated. Where two headings read alike, the source gives them in different places. Marks after values point to notes of the source that are not given here.

Data set [1] concerns the target T1, CB1Rs (Mus musculus (Mouse), UniProt P47746). Nature of the data set: [35S]GTPγS binding assay (G-protein activation) in mouse brain homogenates. Format: biochemical. On the procedure: (§1) Mouse brain homogenates for in vitro assays were prepared as previously described. Briefly, whole brains were harvested from B6SJL mice, snap-frozen in liquid nitrogen and stored at −80° C. On the day membrane homogenates were to be prepared, brains were thawed on ice, then pooled in a 40 mL Dounce glass homogenizer and suspended in 5 volumes of ice cold homogenization buffer (50 mM HEPES, pH 7.4, 3 mM MgCl2, and 1 mM EGTA). Brains were then subjected to 10 complete strokes with an A pestle, followed by centrifugation at 40,000×g for 10 minutes at +4° C. Resulting supernatants were discarded, and the pellet was resuspended, homogenized and centrifuged similarly twice more, with supernatants being discarded. For the final resuspension and homogenization with a B pestle, ice-cold 50 mM HEPES was used in place of homogenization buffer, and homogenates were aliquoted and stored at −80° C. Protein concentrations of homogenates were determined using the BCA™ Protein Assay (Thermo Scientific, Rockford, Ill.).
[^35S]GTPγS binding was performed as previously described. Briefly, 25 μg of mouse brain homogenates were incubated for 30 minutes at 30° C. with 0.1 nM [^35S]GTPγS, 10 μM GDP, and either cannabinoid+/−antagonist, 10 μM unlabeled GTPγS (non-specific binding) or vehicle (total binding), in triplicate, in a volume of 1 mL of buffer containing 20 mM HEPES, 10 mM MgCl2, 100 mM NaCl, 20 units/L adenosine deaminase, 0.05% BSA and the appropriate DMSO (0.1%) and/or ethanol (<0.2%) vehicle. Assay buffer containing 100 mM KCl, instead of 100 mM NaCl, was used to increase basal G-protein activity in experiments examining inverse agonism. Reactions were terminated by quick vacuum filtration through Whatman GF/B glass fiber filters, followed by five washes with ice-cold buffer (20 mM HEPES, 0.05% BSA). Filters were immediately placed into 7 mL scintillation vials to which 4 mL of ScintiVerse™ BD Cocktail scintillation fluid was added. Bound radioactivity was determined after overnight incubation at room temperature and shaking by liquid scintillation spectrophotometry with an efficiency of 93% (Tri Carb 2100 TR Liquid Scintillation Analyzer, Packard Instrument Company, Meriden, Conn.). Specific binding is expressed as picomoles of [^35S]GTPγS bound per mg of protein.
(§2) Curve fitting and statistical analyses for in vitro experiments were performed using GraphPad Prism™ version 5.0b (GraphPad Software Inc., San Diego, Calif.). The Cheng-Prusoff equation [45] was used to convert the experimental IC50 values obtained from competition receptor binding experiments to Ki values, a quantitative measure of receptor affinity. Non-linear regression for one-site competition was used to determine the IC50 for competition receptor binding. Curve fitting of concentration-effect curves via non-linear regression was also employed to determine the EC50 (a measure of potency) and Emax (a measure of efficacy) for [^35S]GTPγS concentration-effects experiments. […] Data are expressed as mean±SEM. The Student's t-test was used to determine statistical significance (P<0.05) between two groups, while a one-way ANOVA, followed by Tukey's Multiple Comparison post-hoc test, was used to determine statistical significance (P<0.05) between three or more groups.

Data set [2] has as its system NIH Swiss mice. Nature of the data set: Core body temperature by biotelemetry (cannabinoid tetrad, hypothermia). The format is in vivo, mouse. To be noted: i.p. As to the method: Prior to surgery (see below), male NIH Swiss mice (Harlan Sprague Dawley Inc., Indianapolis, Ind.), weighing approximately 25-30 g, were housed 3 animals per Plexiglas® cage (15.24×25.40×12.70 cm) in a temperature-controlled room in an Association for Assessment and Accreditation of Laboratory Animal Care (AAALAC) accredited animal facility at the University of Arkansas for Medical Sciences. Room conditions were maintained at 22±2° C. and 45-50% humidity. Lights were set to a 12-h light/dark cycle. Animals were fed Lab Diet rodent chow (Laboratory Rodent Diet #5001, PMI Feeds, Inc., St. Louis, Mo.) and water ad libitum throughout testing Animals were acclimated to the laboratory environment for ˜7 days prior to experiments, and to the biotelemetry chambers for at least 2 hours prior to initiation of data acquisition. All test conditions used groups of 5 or 6 mice, and all mice were drug-naïve (with the exception of surgical anesthetics) prior to testing.
Cannabinoid effects on core temperature and locomotor activity were measured using surgically-implanted biotelemetry probes. Following appropriate anesthetization with ketamine (100 mg/kg, intraperitoneal [i.p.]) and xylazine (10 mg/kg, i.p.), the abdominal area of each mouse was shaved and sanitized with iodine swabs. A rostral-caudal cut approximately 1.5 cm in length was made with skin scissors, providing access to the intraperitoneal cavity. A cylindrical glass-encapsulated radiotelemetry probe (model ER-4000 E-Mitter, Mini Mitter Co., Inc., Bend, Oreg.) was then inserted, and the incision was closed using absorbable 5-0 chromic gut suture material. At least 7 days were imposed between surgery and experimental observation of cannabinoid effects to allow incisions to heal and mice to recover normal body weights. Following surgery, implanted mice were individually housed in Plexiglas® mouse cages (15.24×25.40×12.70 cm) for the duration of all temperature and locomotor activity experiments Implanted transmitters produced activity- and temperature-modulated signals that were transmitted to a receiver (model ER-4000 Receiver, Mini Mitter Co., Inc., Bend, Oreg.) underneath each mouse cage. Receivers were housed in light- and sound-attenuating cubicles (Med Associates model ENV-022MD, St. Albans, Vt.) equipped with exhaust fans, which further masked ambient laboratory noise. On experimental days, mice were weighed, marked, and returned to their individual cages during which at least 1 hr of baseline data were collected. […]. Mice were then placed into a new cage with fresh bedding to stimulate exploratory behavior. Temperature and locomotor activity data were collected at regular 5-min intervals and processed simultaneously by the Vital View data acquisition system (Mini Mitter Co., Inc., Bend, Oreg.) for at least 10 hrs.
For core body temperature experiments, the area under the curve (AUC) was calculated using a trapezoidal rule from 0-500 minutes, and statistical significance (P<0.05) was determined using a one-way ANOVA, followed by Tukey's HSD post-hoc test. For locomotor activity, total locomotor counts were summed from 0-800 minutes. Because locomotor, analgesia and catalepsy data were not normally distributed, Kruskal-Wallis one-way ANOVA on ranks were performed, and all pair-wise comparisons were then made using the Tukey's HSD tests. In vivo statistical calculations were performed using SigmaStat 3 (Systat Software, Inc., San Jose, Calif.).

Data set [3] has as its target T1, CB1Rs. Nature of the data set: Competition receptor binding with [3H]CP-55,940 in mouse brain homogenates. To be noted: mouse brain homogenates, 0.2 nM [3H]CP-55,940; read-out: [3H]CP binding Ki. As to the method: as §1
Competition receptor binding was performed as previously described. […] Reactions were terminated by rapid vacuum filtration through Whatman GF/B glass fiber filters, followed by five washes with ice-cold buffer (50 mM Tris, 0.05% BSA). Filters were immediately placed into 7 mL scintillation vials to which 4 mL of ScintiVerse™ BD Cocktail scintillation fluid (Fisher Scientific, Fair Lawn, N.J.) was added. Bound radioactivity was determined after overnight incubation at room temperature and shaking, by liquid scintillation spectrophotometry with an efficiency of 44% (Tri Carb 2100 TR Liquid Scintillation Analyzer, Packard Instrument Company, Meriden, Conn.). Specific binding is expressed as total binding minus non-specific binding, and is graphed for each data point as a percentage of specific binding occurring in the absence of any competitor.
as §2
The prepared analogues were subjected to in vitro pharmacological testing, which included receptor binding and functional assays at both cannabinoid receptors. Initial receptor binding screens at both CB1Rs and CB2Rs were conducted for the analogues prepared.

Data set [4] relates to NIH Swiss mice. Kind of data set: Locomotor activity by biotelemetry (cannabinoid tetrad). Format: in vivo, mouse. Particulars: 10 mg/kg, i.p.

For the compound `CCCCn1cc(C(=O)Cc2ccc(OC)cc2)c2cccc(OC)c21`, the melting point lay within 72 to 74 °C.

`COc1cccc2c(C(=O)c3cccc4ccccc34)cn(CCN3CCOCC3)c12` showed a melting point of 149 to 152 °C.

As to `CCCCCn1cc(C(=O)c2cccc3ccccc23)c2ccccc21` [JWH-018], the EC50 turned out to be 0.008 µM in data set [1] (JWH-018 alone, read-out: EC50 of JWH-018 for G-protein activation, alone); 0.178 µM in data set [1] (read-out: EC50 of JWH-018 in the presence of M4, + M4 1 μM); 0.263 µM in data set [1] (read-out: EC50 of JWH-018 in the presence of M4, + M4 3 μM); 1.56 µM in data set [1] (read-out: EC50 of JWH-018 in the presence of M4, + M4 10 μM). Further, the “maximal decrease in core body temperature to” value in data set [2] (JWH-018 3 mg/kg, alone) was 30.28+/−0.71 °C.

Turning to `CCCCn1cc(C(=O)Cc2ccccc2F)c2cccc(OC)c21`, the melting point fell in the range of 86 to 88 °C.

In turn, `CCCCn1cc(-c2cccc3ccccc23)c2cccc(OC)c21` displayed a melting point of 74 to 76 °C.

Take `CCCCn1cc(C(=O)Cc2ccccc2)c2cccc(OC)c21`: the melting point lay in the range of 65 to 68 °C.

As to `CCCCn1cc(C(=O)c2cccc3ccccc23)c2c(O)cccc21` [Compound M1], the Ki in data set [3] was 0.0141 ± 0.0035 µM. In data set [1] (1 μM), the “[35S]GTPγS Binding, 1 μM” value stood at 0.17 ± 0.01 pmol/mg. Also, in data set [1] (1 μM cannabinoid (100 nM for CP-55,940) co-incubated with CB1R antagonist O-2050 1 μM), the “[35S]GTPγS Binding, +O-2050 (1 μM)” value is 0.07 ± 0.01 pmol/mg. In data set [1] (concentration-effect, mouse brain homogenates), the “[35S]GTPγS Binding Emax” value is given as 0.14 ± 0.01^b pmole/mg. Also, the EC50 in data set [1] (concentration-effect, mouse brain homogenates, read-out: [35S]GTPγS Binding EC50) came to 0.113 ± 0.0292 µM. Moreover, in data set [1] (receptor-saturating concentration 10 μM), the “[35S]GTPγS Binding, 10 μM” value is 0.14±0.01 pmole/mg and 0.14 ± 0.01^a pmole/mg. For the same compound, in data set [2] (10 mg/kg), the “minimum core body temperature recorded” value amounted to 30.32±0.66 °C and the “time to maximal core body temperature reduction” value was 58.00 ± 4.64 min. For the same compound, the locomotor activity result in data set [4] is “reduction of locomotor activity similar to that observed with administration of JWH-073”.

In the case of `CCCCn1cc(C(=O)Cc2cccc3ccccc23)c2cccc(OC)c21`, the melting point fell in the range of 110 to 113 °C.
